Measured values reported in patent US9175320B2, “Processes for the preparation of (R)-2-(7-4-cyclopentyl-3-(trifluoromethyl)benzyloxy)-1,2,3,4-tetrahydrocyclopenta[B]indol-3-yl)acetic acid and salts thereof” (ARENA PHARMACEUTICALS, INC., priority 2010, dated 2015).

Columns and labels:
S1P1 receptor = S1P1 receptor (Homo sapiens (Human), UniProt P21453); experiment: HTRF assay for direct cAMP measurement; format: cell-based; settings: recombinant CHO-K1 cells stably transfected with S1P1
Text: CHO-K1 cells were obtained from ATCC® (Manassas, Va.; Catalog #CCL-61). […] The HTRF® assay has been used to determine EC50 values for S1P1 receptor agonists. Principle of the assay: HTRF® assay kit was purchased from Cisbio-US, Inc. (Bedford, Mass.; Catalog #62AM4PEC). The HTRF® assay supported by the kit is a competitive immunoassay between endogenous cAMP produced by the CHO-K1 cells and tracer cAMP labeled with the dye d2. The tracer binding is visualized by a monoclonal anti-cAMP antibody labeled with Cryptate. The specific signal (i.e., fluorescence resonance energy transfer, FRET) is inversely proportional to the concentration of unlabeled cAMP in the standard or sample. Standard curve: The fluorescence ratio (665 nm/620 nm) of the standards (0.17 to 712 nM cAMP) included in the assay was calculated and used to generate a cAMP standard curve according to the kit manufacturer's instructions. The fluorescence ratio of the samples (test compound or compound buffer) was calculated and used to deduce respective cAMP concentrations by reference to the cAMP standard curve. […] The plate was then further incubated at room temperature for 1 hour, after which the assay plate was read. Assay readout: HTRF® readout was accomplished using a PHERAstar (BMG LABTECH Inc., Durham, N.C.) or EnVision™ (PerkinElmer, Fremont Calif.) microplate reader.

BALB/c mice = experiment: Mouse Peripheral Lymphocyte Lowering (PLL) assay; format: in vivo; settings: 1.00 mg/kg oral dose, 5 hours post-dose, male BALB/c mice, vs vehicle (FIG. 1)
Experimental: Animals: Male BALB/c mice (Charles River Laboratories, Wilmington, Mass.) were housed four per cage and maintained in a humidity-controlled (40 to 60%) and temperature-controlled (68 to 72° F.) facility on a 12 h:12 h light/dark cycle (lights on at 6:30 am) with free access to food (Harlan Teklad, Orange, Calif., Rodent Diet 8604) and water. Mice were allowed one week of habituation to the animal facility before testing. PLL Assay: […] Peripheral blood samples were collected at 5 hours post-dose. The mice were anesthetized with isoflurane and blood was collected via cardiac puncture. A complete cell count (CBC), including lymphocyte count, was obtained using a CELL-DYN® 3700 (Abbott Laboratories, Abbott Park, Ill.) instrument. Results are presented in FIG. 1, in which peripheral blood lymphocyte (PBL) count is shown for the 5 hour group.

Sprague-Dawley rats [1] = experiment: Rat Peripheral Lymphocyte Lowering (PLL) assay; format: in vivo; settings: 1.00 mg/kg oral dose, 5 hours post-dose, male Sprague-Dawley rats, vs vehicle (FIG. 2)
Experimental: Animals: Male Sprague-Dawley rats (7 weeks of age at start of study) (Charles River Laboratories) were housed two per cage and maintained in a humidity-controlled (40-60%) and temperature-controlled (68-72° F.) facility on a 12 h: 12 h light/dark cycle (lights on at 6:30 am) with free access to food (Harlan Teklad, Orange, Calif., Rodent Diet 8604) and water. Rats were allowed one week of habituation to the animal facility before testing. PLL Assay: […] Peripheral blood samples were collected at 5 hours post-dose. Blood was collected via indwelling catheter. A complete cell count (CBC), including lymphocyte count, was obtained using a CELL-DYN® 3700 (Abbott Laboratories, Abbott Park, Ill.) instrument. Results are presented in FIG. 2, in which peripheral blood lymphocyte (PBL) count is shown for the 5 hour group.

Female Lewis rats = experiment: Collagen-induced arthritis rat model; format: in vivo; settings: 0.3, 1 and 3 mg/kg p.o., q.d., day 0 through day 16 (FIG. 3)
Experimental: Female Lewis rats were used in this study. Acclimated animals were anesthetized with isoflurane and given the first collagen injection (day 0). On day 6, they were anesthetized again for the second collagen injection. Collagen was prepared by making a 4 mg/mL solution in 0.01N acetic acid. Equal volumes of collagen and incomplete Freund's adjuvant were emulsified by hand mixing until a bead of this material held its form when placed in water. Each animal received 300 μL of the mixture each time, spread over 3 subcutaneous sites on the back. Treatment (p.o., q.d., 5 mL/kg dosing volume) began on day 0 and continued through day 16 with vehicle or compounds given at 24 h intervals. Rats were weighed on days 0, 3, 6 and 9 through 17 and caliper measurements of the ankles taken on days 9 through 17.

C57BL/6 mice [2] = experiment: MOG-induced experimental autoimmune encephalomyelitis (EAE) in mice; format: in vivo, mouse; settings: 0.3, 1 and 3 mg/kg orally once a day from day 3 until day 21 (FIG. 4)
Sprague-Dawley rats [3] = experiment: Cardiac telemetry in the rat (bradycardia assay); format: in vivo; settings: oral, vehicle PEG400, heart rate measured over a 120 min period, vs vehicle
Experimental: Animals: Male Sprague-Dawley rats (250-300 g at time of surgery) were implanted by Charles River Laboratories (Wilmington, Mass.) with cardiac transmitting devices (Data Sciences PhysioTel C50-PXT) into the peritoneal space, with a pressure-sensing catheter inserted into the descending aorta. Rats are allowed at least one week to recover. Rats were housed in individual cages and maintained in a humidity-controlled (30-70%) and temperature-controlled (20-22° C.) facility on a 12 h:12 h light/dark cycle (lights on at 7:00 am) with free access to food (Harlan-Teklad, Orange, Calif., Rodent Diet 8604) and water. Rats were allowed one week of habituation to the animal facility before testing. Measurement of cardiovascular parameters: The implanted transmitting devices transmitted continuous measurements of blood pressure (systolic, diastolic, mean arterial, pulse), heart rate, body temperature, and motor activity in freely moving conscious animals. […] Telemetry recording occurred over a 21-h period, starting at noon and continuing until 9:00 am the following day. A maximum of eight rats were tested at a time, and the same eight rats were utilized for all treatment groups in a within-subject design. Drug treatment: […] A full study (vehicle+3 doses) required four separate testing sessions, which occur on Mondays-Tuesdays and Thursdays-Fridays. […]

[4] = Hale et al. 2004; cited from earlier work
S1P3 receptor = S1P3 receptor (Homo sapiens (Human), UniProt Q99500); settings: due to agonism of the S1P3 receptor; cited from earlier work
Sequence of S1P3 receptor (Q99500 whole entry): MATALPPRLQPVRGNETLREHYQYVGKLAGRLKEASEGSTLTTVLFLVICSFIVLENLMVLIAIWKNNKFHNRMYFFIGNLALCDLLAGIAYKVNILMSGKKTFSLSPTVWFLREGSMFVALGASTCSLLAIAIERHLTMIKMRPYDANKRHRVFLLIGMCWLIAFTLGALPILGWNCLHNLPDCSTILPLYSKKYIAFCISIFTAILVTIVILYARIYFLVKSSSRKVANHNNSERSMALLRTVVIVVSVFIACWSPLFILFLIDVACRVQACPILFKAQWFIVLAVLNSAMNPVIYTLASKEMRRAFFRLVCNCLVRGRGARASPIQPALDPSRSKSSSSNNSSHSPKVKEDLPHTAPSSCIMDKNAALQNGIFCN

[5] = tested on: patients with multiple sclerosis; settings: Phase II, relapsing-remitting multiple sclerosis; cited from earlier work
[6] = tested on: dendritic cells infected with Francisella tularensis; settings: Bar-Haim et al. 2008; cited from earlier work
[7] = short-term high dose; cited from earlier work
mice [8] = settings: by reducing the number of mature osteoclasts attached to the bone surface; cited from earlier work
mice [9] = settings: oral administration to mice; cited from earlier work
[10] = spared nerve injury model; cited from earlier work
mice [11] = settings: murine; cited from earlier work
C57BL/6 mice [12] = settings: prophylactic oral administration, 1 mg/kg, three times a week; cited from earlier work

Sequence of S1P1 receptor (P21453 whole entry): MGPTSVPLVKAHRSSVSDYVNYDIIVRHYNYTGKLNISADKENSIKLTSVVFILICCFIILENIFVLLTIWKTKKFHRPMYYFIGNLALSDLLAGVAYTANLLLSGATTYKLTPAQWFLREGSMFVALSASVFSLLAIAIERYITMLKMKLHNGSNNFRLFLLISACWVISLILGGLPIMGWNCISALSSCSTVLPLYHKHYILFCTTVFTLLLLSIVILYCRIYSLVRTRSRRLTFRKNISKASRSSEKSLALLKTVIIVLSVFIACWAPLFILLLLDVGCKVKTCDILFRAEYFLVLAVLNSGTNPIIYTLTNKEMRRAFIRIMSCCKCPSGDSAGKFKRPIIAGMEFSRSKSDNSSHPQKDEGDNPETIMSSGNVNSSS

SMILES	S1P1 receptor agonism (decreased cAMP concentration) (S1P1 receptor)	EC50 (S1P1 receptor; n = 22) [pM]	peripheral blood lymphocyte (PBL) count lowering (BALB/c mice)	peripheral blood lymphocyte (PBL) count lowering (Sprague-Dawley rats [1])	mean ankle diameter (Female Lewis rats)	severity of disease symptoms (clinical score) in EAE (C57BL/6 mice [2])	heart rate (bradycardia) (Sprague-Dawley rats [3])	induction of lymphopenia (PLL) [4]	adverse event in clinical trials (S1P3 receptor)	MRI lesions and clinical disease activity [5]	migration of infected dendritic cells to the mediastinal lymph node [6]	ocular infiltrates [7]	ovariectomy-induced osteoporosis (mice [8])	VEGF-induced vascular permeability (mice [9])	nociceptive behavior [10]	initiation of contact hypersensitivity (mice [11])	development of EAMG (C57BL/6 mice [12])
O=C(O)C[C@H]1CCc2c1[nH]c1ccc(OCc3ccc(C4CCCC4)c(C(F)(F)F)c3)cc21 [(R)-2-(7-(4-cyclopentyl-3-(trifluoromethyl)benzyloxy)-1,2,3,4-tetrahydrocyclopenta[b]indol-3-yl)acetic acid]	agonist of the S1P1 receptor	102	exhibited activity for inducing PBL lowering (lymphopenia)	exhibited activity for inducing PBL lowering (lymphopenia)	exhibited activity for reducing mean ankle diameter	exhibited activity in the mouse EAE assay	no or substantially no reduction of heart rate	–	–	–	–	–	–	–	–	–	–
CCCCCCCCc1ccc(CCC(N)(CO)CO)cc1 [FTY720]	–	–	–	–	–	–	–	rapidly and reversibly induce lymphopenia	transient asymptomatic bradycardia	reduce the number of lesions detected by magnetic resonance imaging (MRI) and clinical disease activity	impair migration of dendritic cells infected with Francisella tularensis to the mediastinal lymph node	rapidly reduced ocular infiltrates	relieved ovariectomy-induced osteoporosis	potently blocked VEGF-induced vascular permeability	reduce the nociceptive behavior	impair initiation of murine contact hypersensitivity (CHS)	completely prevented the development of experimental autoimmune myasthenia gravis (EAMG)
